Converted amounts (≈) assume the structure as drawn.
Experiments:
human MIF [1] = biological target: T1, human MIF (Homo sapiens (Human), UniProt P14174); assay: X-ray crystallography of complexes with human MIF; format: binding
Procedure: The solution was centrifuged at 13,000×g to remove precipitated compound and used to set up hanging-drop crystallization experiments. A reservoir of 2.0 M ammonium sulfate, 0.1 M Tris pH 7, and 3% isopropanol was added to the protein solution in a 1:1 ratio and stored at 20° C. Diffraction-quality crystals with a rod morphology grew within two weeks. The crystals were cryo-protected in 25% glycerol, 2.0M ammonium sulfate, 0.1 M Tris pH 7, and 3% isopropanol. Data was collected at the Advanced Photon Source remotely on the NE-CAT 24-ID-E beam line. […] Crystals were obtained by the hanging-drop method at 20° C. A reservoir of 2.2 M ammonium sulfate, 0.1 M Tris pH 7, and 3% isopropanol mixed in a 1:1 ratio with rhMIF (16 mg/mL) was used to produce 2 μL drops. […] Crystals were cryo-protected with 25% glycerol, 2.2 M ammonium sulfate, 0.1 M Tris pH 7, and 3% isopropanol. […] HKL2000 was used to index, integrate, and scale the MIF-3a data set in the […] space group and the MIF-3b in the P212121 space group. Phases were obtained by molecular replacement with PDB file 3U18 using the CCP4 and PHASER programs. Model building was performed in COOT with iterative restrained refinement with REFMAC.

human MIF [2] = biological target: T1, human MIF; assay: Inhibition of tautomerase activity of human MIF (HPP substrate); format: biochemical; conditions: MIF tautomerase, HPP substrate, 50 nM MIF
Aqueous solubility = format: physicochemical; conditions: aqueous solvent (not further specified), μg compound/mL solvent

| Ki (human MIF [2]) [nM] | solubility (Aqueous solubility) [µg/mL] | SMILES | binding site from X-ray crystal structure of complex (human MIF [1]) |
| --- | --- | --- | --- |
|  |  | Oc1ccc(-n2cc(-c3ccc4ccccc4n3)nn2)cc1 [Example 3a, 4-(4-(quinolin-2-yl)-1H-1,2,3-triazol-1-yl)phenol] | confirm the binding of these inhibitors in the tautomerase active site |
|  |  | COCCOc1ccc2nc(-c3cn(-c4ccc(O)cc4)nn3)ccc2c1 [Example 3b, 4-(4-(6-(2-methoxyethoxy)quinolin-2-yl)-1H-1,2,3-triazol-1-yl)phenol] | confirm the binding of these inhibitors in the tautomerase active site |
|  |  | Oc1ccc(-n2cc(-c3ccc4cc(OCCOCCN5CCOCC5)ccc4n3)nn2)cc1 [Example 3v, 4-(4-(6-(2-(2-morpholinoethoxy)ethoxy)quinolin-2-yl)-1H-1,2,3-triazol-1-yl)phenol] | confirm the binding of these inhibitors in the tautomerase active site |
| 45 | 867 (≈ 2040 µM) | O=C(O)COCCOc1ccc2nc(-c3cn(-c4ccc(O)c(F)c4)nn3)ccc2c1 [Example 44, 2-(2-((2-(1-(3-Fluoro-4-hydroxyphenyl)-1H-1,2,3-triazol-4-yl)quinolin-6-yl)oxy)ethoxy)acetic acid] |  |
|  | 364 (≈ 1010 µM) | O=C(O)COc1ccc2nc(-c3cn(-c4ccc(O)cc4)nn3)ccc2c1 [Example 45] |  |

— patent US10336721B2, “Biaryltriazole inhibitors of macrophage migration inhibitory factor” (YALE UNIVERSITY, priority 2015, dated 2019)
